Experimental data published in patent US20240109853A1 (Shanghai Yao Yuan Biotechnology Co., Ltd., priority 2020, published 2024).
Read-outs that look alike come from different tables or passages of the source.

Assays:
ALPK1 = ALPK1 (Homo sapiens (Human), UniProt Q96QP1); assay: ALPK1 in vitro kinase assay (HTRF of TIFA phosphorylation); assay type: biochemical
[1] = tested on: ALPK1-dependent NFκB reporter gene activation in HEK293 cells stably expressing an NF-kB reporter (G9 cells); assay: NFκB gene reporter alkaline phosphatase assay; assay type: cell-based; conditions: read-out: NFkB assay IC50
Text: In embodiments, a compound of Formula I, or a subembodiment described herein, is an inhibitor of ALPK1 as measured, for example, in an in vitro kinase assay, or an assay designed to measure the activation of downstream targets of ALPK1 pathway activation, for example NFkB transcriptional activation and the secretion of proinflammatory cytokines and chemokines, such as IL-8, which is also referred to as CXCL-8. In general, the computer program XL fit was used for data analysis, including non-linear regression analysis. The half maximal inhibitory concentration (IC50) was used as the measure of a compound's effectiveness in the assays. IC50 values were determined using the following logistic equation Y=min+(max−min)/(1+(X/IC50^−hillslpoe), where Y is the value at the compound concentration, X. The concentration response curve fitting was conducted using GraphPad Prism version 6.00 software.
An alkaline phosphatase reporter assay system was used to measure inhibition of ALPK1-dependent NFκB reporter gene activation. Briefly, HEK293 cells stably expressing an NF-kB reporter (referred to herein as “G9 cells”) were maintained in DMEM as described above. For the assay, cells were seeded into 96-well plates at a density of 10,000 cells/well in Freestyle™ 293 Expression Medium (ThermoFisher), and allowed to attach overnight. Cells were pretreated with serially diluted compounds for 30 min and then stimulated with D-glycero-D-manno-6-fluoro-heptose-1β-S-ADP. […] NFkB gene activation was detected using the chromogenic substrate, para-nitrophenyl phosphate (pNPP) according to the manufacturer's protocols (pNPP Phosphatase Assay, Beyotime Biotechnology).

Chain of ALPK1 (Q96QP1 whole entry): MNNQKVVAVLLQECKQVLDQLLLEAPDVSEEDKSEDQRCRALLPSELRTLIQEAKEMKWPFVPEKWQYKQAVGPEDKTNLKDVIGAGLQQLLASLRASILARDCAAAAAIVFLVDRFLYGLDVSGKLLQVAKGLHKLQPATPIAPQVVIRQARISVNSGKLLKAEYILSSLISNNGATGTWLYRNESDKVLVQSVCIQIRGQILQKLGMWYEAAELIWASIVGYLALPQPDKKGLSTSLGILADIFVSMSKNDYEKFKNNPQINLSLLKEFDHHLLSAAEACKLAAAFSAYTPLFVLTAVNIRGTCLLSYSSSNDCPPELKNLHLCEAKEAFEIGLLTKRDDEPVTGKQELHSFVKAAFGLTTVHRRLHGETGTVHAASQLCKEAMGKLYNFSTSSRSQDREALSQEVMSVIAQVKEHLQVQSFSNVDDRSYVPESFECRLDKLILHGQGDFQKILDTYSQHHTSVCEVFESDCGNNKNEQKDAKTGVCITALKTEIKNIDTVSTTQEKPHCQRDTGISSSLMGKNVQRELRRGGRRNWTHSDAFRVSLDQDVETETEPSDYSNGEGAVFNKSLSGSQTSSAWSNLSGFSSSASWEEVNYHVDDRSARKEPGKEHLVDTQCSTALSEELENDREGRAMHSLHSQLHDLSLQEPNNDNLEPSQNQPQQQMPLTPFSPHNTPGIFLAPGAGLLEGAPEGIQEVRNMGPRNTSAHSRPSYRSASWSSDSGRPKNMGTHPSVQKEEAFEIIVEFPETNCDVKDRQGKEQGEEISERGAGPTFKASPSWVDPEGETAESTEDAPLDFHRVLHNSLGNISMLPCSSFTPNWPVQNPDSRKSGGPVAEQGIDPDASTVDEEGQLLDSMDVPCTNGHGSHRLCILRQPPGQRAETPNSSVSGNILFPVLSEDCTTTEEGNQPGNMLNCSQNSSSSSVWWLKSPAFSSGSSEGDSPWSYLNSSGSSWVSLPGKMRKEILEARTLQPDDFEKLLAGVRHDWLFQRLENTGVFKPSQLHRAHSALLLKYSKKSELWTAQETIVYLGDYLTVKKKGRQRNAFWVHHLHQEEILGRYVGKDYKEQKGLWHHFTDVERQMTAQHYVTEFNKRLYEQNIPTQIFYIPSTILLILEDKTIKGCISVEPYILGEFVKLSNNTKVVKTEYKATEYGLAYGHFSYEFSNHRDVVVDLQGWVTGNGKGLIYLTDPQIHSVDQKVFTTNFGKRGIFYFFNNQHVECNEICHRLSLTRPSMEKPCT

Row | SMILES | IC50 (ALPK1) [nM] | IC50 ([1]; Homo sapiens, HEK293) [nM] | IC50 [1] [nM]
1 | C#C[C@](C)(c1ccc(Br)cc1)c1csc(NC(=O)NCC(O)CO)n1 (stereo in doubt) [Example A277, 1-(4-(2-(4-bromophenyl)but-3-yn-2-yl)thiazol-2-yl)-3-(2,3-dihydroxypropyl)urea] | 2670 | 1230 | 
2 | C#C[C@@](C)(c1ccc(Br)cc1)c1csc(NC(=O)NCC(O)CO)n1 (stereo in doubt) [Example A278, 1-(4-(2-(4-bromophenyl)but-3-yn-2-yl)thiazol-2-yl)-3-(2,3-dihydroxypropyl)urea] | 624 | 520 | 
3 | C#C[C@](C)(c1ccc(F)cc1)c1csc(NC(=O)NCCO)n1 (stereo in doubt) [Example A282, 1-(4-(2-(4-fluorophenyl)but-3-yn-2-yl)thiazol-2-yl)-3-(2-hydroxyethyl)urea] | 2150 | 7720 | 
4 | C#C[C@](C)(c1ccc(Cl)cc1)c1csc(NC(=O)NCC2(O)CNC2)n1 (stereo in doubt) [Example A286, 1-(4-(2-(4-chlorophenyl)but-3-yn-2-yl)thiazol-2-yl)-3-((3-hydroxyazetidin-3-yl)methyl)urea] | 495 | 15400 | 
5 | C#C[C@@](C)(c1ccc(Cl)cc1)c1csc(NC(=O)NCC2(O)CNC2)n1 (stereo in doubt) [Example A287, 1-(4-(2-(4-chlorophenyl)but-3-yn-2-yl)thiazol-2-yl)-3-((3-hydroxyazetidin-3-yl)methyl)urea] | 130 | 4400 | 
6 | C#C[C@](C)(c1ccc(Cl)cc1)c1csc(NC(=O)N2CC(CN3CCNCC3)C2)n1 (stereo in doubt) [Example A291, N-(4-(2-(4-chlorophenyl)but-3-yn-2-yl)thiazol-2-yl)-3-(piperazin-1-ylmethyl)azetidine-1-carboxamide] | 109 | 1650 | 
7 | C#C[C@](C)(c1ccc(Cl)cc1)c1csc(NC(=O)NC(C)(C)CO)n1 (stereo in doubt) [Example A293, 1-(4-(2-(4-chlorophenyl)but-3-yn-2-yl)thiazol-2-yl)-3-(1-hydroxy-2-methylpropan-2-yl)urea] | 9360 | 8110 | 
8 | C#C[C@@](C)(c1ccc(Cl)cc1)c1csc(NC(=O)NC(C)(C)CO)n1 (stereo in doubt) [Example A294, 1-(4-(2-(4-chlorophenyl)but-3-yn-2-yl)thiazol-2-yl)-3-(1-hydroxy-2-methylpropan-2-yl)urea] | 285 | 3040 | 
9 | C#C[C@](C)(c1ccc(Cl)cc1)c1csc(NC(=O)NC(CO)CO)n1 (stereo in doubt) [Example A297, 1-(4-(2-(4-chlorophenyl)but-3-yn-2-yl)thiazol-2-yl)-3-(1,3-dihydroxypropan-2-yl)urea] | 935 | 4390 | 
10 | C#C[C@@](C)(c1ccc(Cl)cc1)c1csc(NC(=O)NC(CO)CO)n1 (stereo in doubt) [Example A298, 1-(4-(2-(4-chlorophenyl)but-3-yn-2-yl)thiazol-2-yl)-3-(1,3-dihydroxypropan-2-yl)urea] | 246 | 1150 | 
11 | C#C[C@](C)(c1ccc(Br)cc1)c1csc(NC(=O)NCC(C)(C)O)n1 (stereo in doubt) [Example A305, 1-[4-[1-(4-bromophenyl)-1-methyl-prop-2-ynyl]thiazol-2-yl]-3-(2-hydroxy-2-methyl-propyl)urea] | 167 | 2690 | 
12 | C#C[C@@](C)(c1ccc(Br)cc1)c1csc(NC(=O)NCC(C)(C)O)n1 (stereo in doubt) [Example A306, 1-[4-[1-(4-bromophenyl)-1-methyl-prop-2-ynyl]thiazol-2-yl]-3-(2-hydroxy-2-methyl-propyl)urea] | 56 | 830 | 
13 | [2H]C([2H])(O)CNC(=O)Nc1nc([C@@](C)(C#C)c2ccc(Cl)cc2)cs1 (stereo in doubt) [Example A321, 1-[4-[1-(4-chlorophenyl)-1-methyl-prop-2-ynyl]thiazol-2-yl]-3-(2,2-dideuterio-2-hydroxy-ethyl)urea] | 28 | 300 | 
14 | COc1ccc(C(C)(C)c2csc(NC(=O)NC(C)c3ccc(N4CCNCC4)nc3)n2)cc1 (stereo not shown) [Example A001, 1-(4-(2-(4-methoxyphenyl)propan-2-yl)thiazol-2-yl)-3-(1-(6-(piperazin-1-yl)pyridin-3-yl)ethyl)urea] | 58 | 670 | 
15 | COc1ccc(C(C)(C)c2csc(NC(=O)NC(C)c3cc(F)c(N4CCNCC4)cc3F)n2)cc1 (stereo not shown) [Example A002, 1-(1-(2,5-difluoro-4-(piperazin-1-yl)phenyl)ethyl)-3-(4-(2-(4-methoxyphenyl)propan-2-yl)thiazol-2-yl)urea] | 63 | 700 | 
16 | CC(NC(=O)Nc1nc(C(C)(C)c2ccc(Br)cc2)cs1)c1cc(F)c(N2CCNCC2)c(F)c1 (stereo not shown) [Example A003, 1-(4-(2-(4-bromophenyl)propan-2-yl)thiazol-2-yl)-3-(1-(3,5-difluoro-4-(piperazin-1-yl)phenyl)ethyl)urea] | 45 | 1200 | 
17 | CC(C)(c1ccc(Br)cc1)c1csc(NC(=O)NCc2cncnc2)n1 [Example A004, 1-(4-(2-(4-bromophenyl)propan-2-yl)thiazol-2-yl)-3-(pyrimidin-5-ylmethyl)urea] | 240 | 2030 | 
18 | CC(C)(c1ccc(Br)cc1)c1csc(NC(=O)NCc2ccc(C(N)=O)cc2)n1 [Example A008, 4-((3-(4-(2-(4-bromophenyl)propan-2-yl)thiazol-2-yl)ureido)methyl)benz-mide] | 8 | 700 | 
19 | CC(C)(c1ccc(Br)cc1)c1csc(NC(=O)NCc2ccc(N3CCC(O)C3)cc2)n1 (stereo not shown) [Example A009, 1-(4-(2-(4-bromophenyl)propan-2-yl)thiazol-2-yl)-3-(4-(3-hydroxypyrrolidin-1-yl)benzyl)urea] | 154 | 3150 | 
20 | CC(C)(c1ccc(Br)cc1)c1csc(NC(=O)NCc2ccc(N3CCN(CCO)CC3)nc2)n1 [Example A010, 1-(4-(2-(4-bromophenyl)propan-2-yl)thiazol-2-yl)-3-((6-(4-(2-hydroxyethyl)piperazin-1-yl)pyridin-3-yl)methyl)urea] | 200 | 3950 | 
21 | COc1ccc(C(C)(C)c2csc(NC(=O)NCc3ccc(N4CCC(N(C)C)C4)nc3)n2)cc1 (stereo not shown) [Example A011, 1-((6-(3-(dimethylamino)pyrrolidin-1-yl)pyridin-3-yl)methyl)-3-(4-(2-(4-methoxyphenyl)propan-2-yl)thiazol-2-yl)urea] | 49 | 1370 | 
22 | COc1ccc(C(C)(C)c2csc(NC(=O)NCc3cnc(N4CCC(N(C)C)C4)nc3)n2)cc1 (stereo not shown) [Example A012, 1-((2-(3-(dimethylamino)pyrrolidin-1-yl)pyrimidin-5-yl)methyl)-3-(4-(2-(4-methoxyphenyl)propan-2-yl)thiazol-2-yl)urea] | 40 | 2210 | 
23 | COc1ccc(C(C)(C)c2csc(NC(=O)NCCS(C)(=O)=O)n2)cc1 [Example A013, 1-(4-(2-(4-methoxyphenyl)propan-2-yl)thiazol-2-yl)-3-(2-(methylsulfonyl)ethyl)urea] | 316 | 2970 | 
24 | COc1ccc(C(C)(C)c2csc(NC(=O)NCc3ccc(NCCO)nc3)n2)cc1 [Example A014, 1-((6-((2-hydroxyethyl)amino)pyri-din-3-yl)methyl)-3-(4-(2-(4-methoxyphenyl)propan-2-yl)thiazol-2-yl)urea] | 160 | 880 | 
25 | COc1ccc(C(C)(C)c2csc(NC(=O)NCc3ccc(C(=O)NC4CCN(C)CC4)nc3)n2)cc1 [Example A015, 5-((3-(4-(2-(4-methoxyphenyl)propan-2-yl)thiazol-2-yl)ureido)methyl)-N-(1-methylpiperidin-4-yl)picolinamide] | 24 |  | 880
26 | CN1CCN(Cc2ccc(CNC(=O)Nc3nc(C(C)(C)c4ccc(Br)cc4)cs3)cc2)CC1 [Example A016, 1-(4-(2-(4-bromophenyl)propan-2-yl)thiazol-2-yl)-3-(4-((4-methylpiperazin-1-yl)methyl)benzyl)urea] | 27 | 2340 | 
27 | CC(C)(c1ccc(Br)cc1)c1csc(NC(=O)NCc2ccc(F)c(Cl)c2)n1 [Example A017, 1-(4-(2-(4-bromophenyl)propan-2-yl)thiazol-2-yl)-3-(3-chloro-4-fluorobenzyl)urea] | 204 | 970 | 
28 | COc1ccc(C(C)(C)c2csc(NC(=O)NCc3ccc(C(=O)NC4CCN(C)CC4)cc3)n2)cc1 [Example A018, 4-((3-(4-(2-(4-methoxyphenyl)propan-2-yl)thiazol-2-yl)ureido)methyl)-N-(1-methylpiperidin-4-yl)benzamide] | 29 | 1280 | 
29 | COc1ccc(C(C)(C)c2csc(NC(=O)NCc3ccc(NC4CCN(C)CC4)nc3)n2)cc1 [Example A019, 1-(4-(2-(4-methoxyphenyl)propan-2-yl)thiazol-2-yl)-3-((6-((1-methylpiperidin-4-yl)amino)pyridin-3-yl)methyl)urea] | 32 | 1290 | 
